Assay results as given in ChEMBL document CHEMBL1201862, “PubChem BioAssay data set” (2004).
The source made the active and inactive calls.

Key:
[1] = A Cell Based Secondary Assay To Explore Cytotoxicity of Compounds that Sensitize Mycobacterium Tuberculosis to Beta-Lactam Antibiotics.; assay type: functional
[2] = Counterscreen for IDE inhibitors: Luminescence-based cell-based high throughput dose response assay to identify compounds that are cytotoxic to HEK cells. [Related pubchem assays: 434962 (Primary screen (IDE inhibitors in singlicate)), 449730 (Counterscreen (Cytotoxicity in triplicate)), 435028 (Confirmation (IDE inhibitors in triplicate)) …; assay type: functional; conditions: HEK293
Insulin-degrading enzyme = molecular target: T1, Insulin-degrading enzyme (Homo sapiens, UniProt P14735); experiment: Dose Response: Fluorescence polarization-based cell-based high throughput dose response assay for inhibitors of insulin-degrading enzyme (IDE). [Related pubchem assays: 434962 (Primary screen (IDE inhibitors in singlicate)), 449730 (Counterscreen (Cytotoxicity in triplicate)), 435028 (Confirmation (IDE inhibitors in triplicate)), 434984 (Summary …; assay type: functional
T1 sequence (P14735 whole entry): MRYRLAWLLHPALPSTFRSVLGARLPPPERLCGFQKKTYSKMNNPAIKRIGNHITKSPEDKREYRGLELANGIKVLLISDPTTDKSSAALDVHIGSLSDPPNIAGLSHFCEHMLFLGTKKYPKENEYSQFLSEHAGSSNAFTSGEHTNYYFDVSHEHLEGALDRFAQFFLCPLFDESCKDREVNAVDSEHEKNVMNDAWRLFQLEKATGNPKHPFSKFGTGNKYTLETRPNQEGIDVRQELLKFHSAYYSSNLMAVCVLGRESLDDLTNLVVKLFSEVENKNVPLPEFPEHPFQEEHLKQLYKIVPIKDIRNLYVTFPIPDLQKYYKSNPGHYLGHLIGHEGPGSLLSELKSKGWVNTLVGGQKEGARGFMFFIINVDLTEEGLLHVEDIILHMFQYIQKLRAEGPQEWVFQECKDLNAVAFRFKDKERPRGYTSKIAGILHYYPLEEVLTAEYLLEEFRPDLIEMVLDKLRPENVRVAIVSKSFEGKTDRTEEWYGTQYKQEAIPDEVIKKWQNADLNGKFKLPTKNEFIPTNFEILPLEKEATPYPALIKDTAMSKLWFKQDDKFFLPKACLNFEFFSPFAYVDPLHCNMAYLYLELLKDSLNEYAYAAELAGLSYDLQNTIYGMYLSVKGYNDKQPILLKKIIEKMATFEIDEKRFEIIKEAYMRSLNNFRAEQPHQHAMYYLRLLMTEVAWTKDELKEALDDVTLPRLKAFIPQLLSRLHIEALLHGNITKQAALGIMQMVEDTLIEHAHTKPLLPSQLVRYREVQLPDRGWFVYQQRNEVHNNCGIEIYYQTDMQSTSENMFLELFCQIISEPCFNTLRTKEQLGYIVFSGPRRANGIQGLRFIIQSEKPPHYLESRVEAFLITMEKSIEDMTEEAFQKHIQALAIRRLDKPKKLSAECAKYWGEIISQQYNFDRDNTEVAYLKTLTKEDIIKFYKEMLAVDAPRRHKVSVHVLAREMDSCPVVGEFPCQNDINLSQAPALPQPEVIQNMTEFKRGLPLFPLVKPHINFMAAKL

[3] = molecular target: Heat shock protein HSP 90-alpha (Homo sapiens, UniProt P07900); assay type: functional, organism-based
[4] = molecular target: G-protein coupled receptor 35 (Homo sapiens, UniProt Q9HC97); experiment: GPR35 antagonists blocking zaprinast-driven arrestin recruitment, primary screen, imaging, U2OS, beta-arrestin-GFP, zaprinast agonist (AID 2058); assay type: functional;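 note: antagonist potency meaning inhibition of agonist-induced arrestin redistribution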
[5] = molecular target: T2, Acyl-homoserine lactone acylase PvdQ (Pseudomonas aeruginosa (strain LESB58), UniProt Q9I194); experiment: P. aeruginosa PvdQ acylase inhibitors, dose response, biochemical, fluorescence, plate reader and imaging, cherry-picks (AID 493231)
T2 sequence (Q9I194 whole entry): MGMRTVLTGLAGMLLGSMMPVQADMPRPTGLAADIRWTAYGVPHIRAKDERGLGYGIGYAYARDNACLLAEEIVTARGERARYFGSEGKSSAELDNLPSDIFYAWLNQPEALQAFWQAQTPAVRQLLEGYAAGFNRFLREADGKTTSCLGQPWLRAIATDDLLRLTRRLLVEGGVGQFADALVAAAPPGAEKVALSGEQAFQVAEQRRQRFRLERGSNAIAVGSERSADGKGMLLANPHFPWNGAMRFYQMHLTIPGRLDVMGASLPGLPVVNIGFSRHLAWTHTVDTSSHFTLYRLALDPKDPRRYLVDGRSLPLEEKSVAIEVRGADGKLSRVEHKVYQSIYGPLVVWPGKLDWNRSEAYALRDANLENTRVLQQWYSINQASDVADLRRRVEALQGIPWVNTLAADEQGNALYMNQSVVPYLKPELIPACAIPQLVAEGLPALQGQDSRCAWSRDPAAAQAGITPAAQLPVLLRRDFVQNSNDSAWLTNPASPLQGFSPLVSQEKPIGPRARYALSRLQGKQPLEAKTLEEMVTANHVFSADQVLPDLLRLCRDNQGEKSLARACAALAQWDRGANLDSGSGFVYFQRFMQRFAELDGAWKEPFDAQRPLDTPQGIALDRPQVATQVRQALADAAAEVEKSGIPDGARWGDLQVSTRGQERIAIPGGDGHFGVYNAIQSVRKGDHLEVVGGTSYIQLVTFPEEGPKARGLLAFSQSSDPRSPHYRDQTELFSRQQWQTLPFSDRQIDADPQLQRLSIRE

[6] = molecular target: T3, Lysosomal acid glucosylceramidase (Homo sapiens, UniProt P04062); experiment: Dose response cell-based high throughput screening assay to identify enhancers of beta-glucosidase activity. [Related pubchem assays: 784 ]; assay type: functional
T3 sequence (P04062 whole entry): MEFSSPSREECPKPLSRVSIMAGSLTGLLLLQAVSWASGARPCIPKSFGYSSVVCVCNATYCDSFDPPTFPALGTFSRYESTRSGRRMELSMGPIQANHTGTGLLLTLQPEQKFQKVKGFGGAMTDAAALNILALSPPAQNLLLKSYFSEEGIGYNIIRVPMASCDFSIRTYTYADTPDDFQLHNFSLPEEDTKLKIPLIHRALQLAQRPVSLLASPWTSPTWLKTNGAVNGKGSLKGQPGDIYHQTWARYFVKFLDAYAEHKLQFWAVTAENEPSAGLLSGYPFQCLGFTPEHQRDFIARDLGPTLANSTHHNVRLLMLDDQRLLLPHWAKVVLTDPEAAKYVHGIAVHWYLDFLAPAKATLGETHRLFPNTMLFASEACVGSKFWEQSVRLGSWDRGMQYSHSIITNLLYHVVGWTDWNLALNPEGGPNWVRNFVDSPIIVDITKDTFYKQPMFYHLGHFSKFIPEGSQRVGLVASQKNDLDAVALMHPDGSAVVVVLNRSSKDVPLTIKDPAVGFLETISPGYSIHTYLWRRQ

Melanocortin receptor 4 = Melanocortin receptor 4 (Homo sapiens, UniProt P32245); assay type: functional, cell-based;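 note: Cell-based assay with luminescence read-out, confirmatory dose-response testing for agonist activity of biased ligands at MC4R; human U2OS cells with tagged receptor and beta-arrestin; potency of agonists that increase receptor coupling to beta-arrestin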
[7] = M. tuberculosis H37Rv growth inhibitors, H37Rv strain (AID 1626); assay type: functional
[8] = growth suppression of beta-catenin-knockout colon cells, dose response, cell-based, HCT116, human colon tumor (AID 1045); assay type: functional;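 note: HCT116 colon tumor cells with beta catenin knocked out; cells exposed to compound for 60 hours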
[9] = growth suppression of PTEN-null colon cells, dose response, cell-based, HCT116 PTEN knockout (AID 1047); assay type: functional;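 note: HCT116 colon tumor cells with PTEN knocked out; cells exposed to compound for 60 hours before readout; potency for loss of cell viability measured by luminescence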
cells [10] = assay type: functional, cell-based
cells [11] = assay type: functional, cell-based; remark: listed apart in the source
Streptococcus = experiment: Group A Streptococcus viability loss, dose response, counter-screen for streptokinase expression inhibitor project, luminescence, BacTiterGlo (AID 1915); assay type: functional, organism-based;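 note: potency for reduction of bacterial viability or growth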
Streptokinase A = molecular target: T4, Streptokinase A (Streptococcus pyogenes serotype M1, UniProt P10520); experiment: S. pyogenes streptokinase expression inhibitors, potency, dose response, plasminogen activation absorbance, OD405 (AID 1914); assay type: functional, Streptococcus pyogenes M1 GAS;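 note: secreted streptokinase activity via plasminogen activation per viability signal from cell pellet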
T4 sequence (P10520 whole entry): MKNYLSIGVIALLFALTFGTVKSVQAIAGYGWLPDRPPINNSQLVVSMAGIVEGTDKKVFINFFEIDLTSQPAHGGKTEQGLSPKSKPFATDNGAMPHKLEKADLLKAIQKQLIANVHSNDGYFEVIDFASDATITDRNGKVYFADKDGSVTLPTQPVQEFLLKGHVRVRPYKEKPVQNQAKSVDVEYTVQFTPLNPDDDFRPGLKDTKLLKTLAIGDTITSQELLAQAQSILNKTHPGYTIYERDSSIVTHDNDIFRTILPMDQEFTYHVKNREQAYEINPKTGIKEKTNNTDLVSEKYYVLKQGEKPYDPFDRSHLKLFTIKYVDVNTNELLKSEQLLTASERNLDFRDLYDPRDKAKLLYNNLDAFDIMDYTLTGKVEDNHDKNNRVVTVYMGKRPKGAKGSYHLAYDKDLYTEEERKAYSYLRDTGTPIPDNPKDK

[12] = cytotoxicity in KRAS-transformed pancreatic duct cells, primary screen, cell-based, fluorescence, HTS (AID 431); assay type: functional; conditions: Homo sapiens;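 note: cell line used: HPDE-C7K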
[13] = system: Streptococcus sp. 'group A'; experiment: growth inhibition of control SK(-) GAS strain, dose response, counter-screen for streptokinase expression inhibitor project, luminescence, kanamycin, BacTiterGlo, confirmation (AID 1900); assay type: functional, organism-based
[14] = cytotoxicity in HPDE-C7 cells, cell-based, fluorescence, HTS (AID 430); assay type: functional; conditions: Homo sapiens

Chain of Melanocortin receptor 4 (P32245 whole entry): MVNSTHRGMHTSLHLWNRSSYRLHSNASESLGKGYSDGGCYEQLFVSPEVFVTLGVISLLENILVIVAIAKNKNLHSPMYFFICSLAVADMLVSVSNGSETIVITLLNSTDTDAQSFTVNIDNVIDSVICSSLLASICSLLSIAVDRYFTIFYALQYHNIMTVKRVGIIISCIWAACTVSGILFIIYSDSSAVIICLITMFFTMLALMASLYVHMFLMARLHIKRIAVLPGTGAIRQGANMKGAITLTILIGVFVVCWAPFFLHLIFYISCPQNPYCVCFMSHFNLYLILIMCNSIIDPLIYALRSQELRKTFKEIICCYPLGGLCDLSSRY
Chain of G-protein coupled receptor 35 (Q9HC97 whole entry): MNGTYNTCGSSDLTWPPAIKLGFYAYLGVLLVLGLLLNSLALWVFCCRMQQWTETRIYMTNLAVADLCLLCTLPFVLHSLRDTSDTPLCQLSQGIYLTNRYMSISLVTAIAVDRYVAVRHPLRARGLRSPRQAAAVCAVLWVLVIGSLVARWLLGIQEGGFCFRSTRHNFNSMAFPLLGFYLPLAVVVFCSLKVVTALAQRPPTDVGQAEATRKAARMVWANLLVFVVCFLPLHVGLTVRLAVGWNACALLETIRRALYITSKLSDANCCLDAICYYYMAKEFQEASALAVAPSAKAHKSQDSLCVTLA

With `O=C(/C=C/c1ccc([N+](=O)[O-])cc1)c1cccs1` the CC50 [1] was 20.9 µM (active).

With `Cc1cc(C)cc(Nc2cnn(C34CC5CC(CC(CC(=O)O)(C5)C3)C4)c(=O)c2Cl)c1` the IC50 [2] was 0.0039 µM (active) and the IC50 (Insulin-degrading enzyme) was 21.5 µM (not active).

In the case of `CN(C)/C=C/C(=O)c1ccc(N2CCN(c3ncc(C(F)(F)F)cc3Cl)CC2)cc1`, the AC50 [3] is reported as 4.29 µM (active) and the IC50 [4] is reported as 0.53 µM (active).

In the case of `CCN1C(=O)/C(=C/C=C2/CCCN2C)OC1=S`, the IC50 [2] is reported as > 55.7 µM (not active) and the IC50 (Insulin-degrading enzyme) is reported as 30.7 µM (not active).

In the case of `Cc1ccc(S(=O)(=O)NCc2ccc3c(c2)OCO3)cc1C`, the AC50 [5] is reported as 70.4 µM (active).

For `Cc1nonc1NC(=O)CSc1nc2cc(Cl)ccc2c2c1CCCC2`, the EC50 [6] was > 10 µM (not active).

In the case of `O=C(COc1ccc2c(c1)OCO2)Nc1ccc2c(c1)oc1ccccc12`, the EC50 (Melanocortin receptor 4) is reported as > 89.2 µM (inactive) and the IC50 [7] is reported as > 100 µM (active).

In the case of `Oc1ccc(F)cc1-c1cc(-c2ccc3c(c2)OCCO3)[nH]n1`, the EC50 [8] is reported as 25.9 µM (active), the EC50 [9] is reported as 46.6 µM (active) and the AC50 [5] is reported as > 100 µM (inactive).

With `CCCCCCN1C=CC=C/C1=C/C=C(C#N)C#N` the IC50 [2] was 45.9 µM (not active), the EC50 (cells [10]) was > 350 µM (not active) and the EC50 (cells [11]) was > 350 µM (not active). The IC50 (Insulin-degrading enzyme) was > 6.22 µM (active).

In the case of `CC(C)(C)C1CCC2(CC1)C(C#N)=C(SCC(=O)Nc1ccccc1)NC(=O)C2C#N` (centres undefined), the EC50 (Streptococcus) is reported as 25.2 µM (active), the EC50 (Streptokinase A) is reported as 11.5 µM (active) and the EC50 [12] is reported as 4.26 µM (active). For the same compound, the EC50 [13] was 4.96 µM (active) and the EC50 [14] was 5.05 µM (active).

With `Cc1cccnc1NC(=O)c1c(O)c2cccc3c2n(c1=O)CCC3` the CC50 [1] was > 40 µM (active).
